In US7462600B2, “Macrolides” (Pfizer Inc, priority 2004, dated 2008):
In brackets after ≈: the same amount, converted by molar mass.

Columns and labels:
Assay type in all cases: cell-based
[1] = system: Streptococcus pneumoniae 1016; assay: MIC, microtiter broth dilution (NCCLS M100-S14), S. pneumoniae 1016 (susceptible); conditions: Streptococcus pneumoniae 1016
Outline: (§1)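 Broth microdilution MICs in microtiter trays, run and interpreted per NCCLS M100-S14. Compounds were dissolved in DMSO as 40 mg/ml stocks.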

[2] = system: Haemophilus influenzae 1218; assay: MIC, microtiter broth dilution (NCCLS M100-S14), H. influenzae 1218 (susceptible); conditions: Haemophilus influenzae 1218
Outline: as §1

[3] = system: Streptococcus pyogenes 1079; assay: MIC, microtiter broth dilution (NCCLS M100-S14), S. pyogenes 1079 (ermB); conditions: Streptococcus pyogenes 1079
Outline: as §1

[4] = system: Streptococcus pneumoniae 1175; conditions: Streptococcus pneumoniae 1175; microtiter broth dilution
Outline: as §1

[5] = system: Streptococcus pneumoniae 1095; conditions: Streptococcus pneumoniae 1095; microtiter broth dilution
Outline: as §1

Compound | MIC S. pneumo. 1016 [1] | MIC H. influenzae 1218 [2] | MIC S. pyogenes 1079 [3] | MIC S. pneumo. 1175 [4] | MIC S. pneumo. 1095 [5]
CCC1OC(=O)C(C)C(=O)C(C)C(OC2OC(C)CC(N(C)C)C2O)C(C)(OC)CC(C)C(=O)C(C)C2N(C3CN(Cc4ccnc5cccnc45)C3)C(=O)OC12C (centres unmarked) [Example 1.26, 3-descladinosyl-11,12-dideoxy-6-O-methyl-3-oxo-12,11-(oxycarbonyl-(1-((1,5-naphthyridin4-yl)-methyl)-azetidin-3-yl)-imino)-erythromycin A] | <0.06 µg/mL | 0.38 µg/mL (≈ 0.469 µM) | 1 µg/mL (≈ 1.23 µM) | <0.06 µg/mL | <0.06 µg/mL
CCC1OC(=O)C(C)C(=O)C(C)C(OC2OC(C)CC(N(C)C)C2O)C(C)(OC)CC(C)C(=O)C(C)C2N(C3CN(Cc4ccnc5ccncc45)C3)C(=O)OC12C (centres unmarked) [Example 1.27, 3-descladinosyl-11,12-dideoxy-6-O-methyl-3-oxo-12,11-(oxycarbonyl-(1-((1,6-naphthyridin-4-yl)-methyl)-azetidin-3-yl)-imino)-erythromycin A] | <0.06 µg/mL | 0.5 µg/mL (≈ 0.617 µM) | 2 µg/mL (≈ 2.47 µM) | 0.5 µg/mL (≈ 0.617 µM) | <0.06 µg/mL
CCC1OC(=O)C(C)C(=O)C(C)C(OC2OC(C)CC(N(C)C)C2O)C(C)(OC)CC(C)C(=O)C(C)C2N(C3CN(Cc4ccc5nccnc5c4)C3)C(=O)OC12C (centres unmarked) [Example 1.28, 3-descladinosyl-11,12-dideoxy-6-O-methyl-3-oxo-12,11-(oxycarbonyl-(1-((quinoxalin-6-yl)-methyl)-azetidin-3-yl)-imino)-erythromycin A] | <0.06 µg/mL | 0.5 µg/mL (≈ 0.617 µM) | 8 µg/mL (≈ 9.88 µM) | 4 µg/mL (≈ 4.94 µM) | <0.06 µg/mL
CCC1OC(=O)C(C)C(=O)C(C)C(OC2OC(C)CC(N(C)C)C2O)C(C)(OC)CC(C)C(=O)C(C)C2N(C3CN(Cc4n[nH]c5ccccc45)C3)C(=O)OC12C (centres unmarked) [Example 1.29, 3-descladinosyl-11,12-dideoxy-6-O-methyl-3-oxo-12,11-(oxycarbonyl-(1-((indazol-3-yl)-methyl)-azetidin-3-yl)-imino)-erythromycin A] | <0.06 µg/mL | 0.5 µg/mL (≈ 0.627 µM) | 2 µg/mL (≈ 2.51 µM) | 1 µg/mL (≈ 1.25 µM) | <0.06 µg/mL
CCC1OC(=O)C(C)(F)C(=O)C(C)C(OC2OC(C)CC(N(C)C)C2O)C(C)(OC)CC(C)C(=O)C(C)C2N(C3CN(C(C)c4ccnc5ncccc45)C3)C(=O)OC12C (stereo not drawn) [Example 1.32, 3-descladinosyl-11,12-dideoxy-2-fluoro-6-O-methyl-3-oxo-12,11-(oxycarbonyl-(1-(1R-(1,8-naphthyridin-4-yl)-ethyl)-azetidin-3-yl)-imino)-erythromycin A] | <0.06 µg/mL | 0.5 µg/mL (≈ 0.594 µM) | 0.12 µg/mL (≈ 0.143 µM) | 0.25 µg/mL (≈ 0.297 µM) | <0.06 µg/mL
CCC1OC(=O)C(C)(F)C(=O)C(C)C(OC2OC(C)CC(N(C)C)C2O)C(C)(OC)CC(C)C(=O)C(C)C2N(C3CN(Cc4ccnc5ncccc45)C3)C(=O)OC12C (centres unmarked) [Example 1.33, 3-descladinosyl-11,12-dideoxy-2-fluoro-6-O-methyl-3-oxo-12,11-(oxycarbonyl-(1-((1,8-naphthyridin-4-yl)-methyl)-azetidin-3-yl)-imino)-erythromycin A] | <0.06 µg/mL | 0.25 µg/mL (≈ 0.302 µM) | 0.25 µg/mL (≈ 0.302 µM) | <0.06 µg/mL | <0.06 µg/mL
CCC1OC(=O)C(C)C(=O)C(C)C(OC2OC(C)CC(N(C)C)C2O)C(C)(OC)CC(C)C(=O)C(C)C2N(C3CN(Cc4ccc5nc(C)sc5n4)C3)C(=O)OC12C (centres unmarked) [Example 1.34, (2-methyl-thiazolo[5,4-b]pyridin-5-yl)methyl] | <0.06 µg/mL | 0.5 µg/mL (≈ 0.602 µM) | 32 µg/mL (≈ 38.6 µM) | 0.12 µg/mL (≈ 0.145 µM) | <0.06 µg/mL
CCC1OC(=O)C(C)C(=O)C(C)C(OC2OC(C)CC(N(C)C)C2O)C(C)(OC)CC(C)C(=O)C(C)C2N(C3CN(Cc4ccnc5ncsc45)C3)C(=O)OC12C (centres unmarked) [Example 1.35, 3-descladinosyl-11,12-dideoxy-6-O-methyl-3-oxo-12,11-(oxycarbonyl-(1-((thiazolo[4,5-b]pyridin-7-yl)-methyl)-azetidin-3-yl)-imino)erythromycin A] | <0.06 µg/mL | 1 µg/mL (≈ 1.23 µM) | 4 µg/mL (≈ 4.9 µM) | 0.12 µg/mL (≈ 0.147 µM) | <0.06 µg/mL
CCC1OC(=O)C(C)C(=O)C(C)C(OC2OC(C)CC(N(C)C)C2O)C(C)(OC)CC(C)C(=O)C(C)C2N(C3CN(Cc4cc(=O)[nH]c5ccc(Cl)cc45)C3)C(=O)OC12C (centres unmarked) [Example 1.36, (6-chloro-1H-quinolin-2-on-4-yl)methyl] | <0.06 µg/mL | 0.5 µg/mL (≈ 0.582 µM) | 8 µg/mL (≈ 9.31 µM) | 0.12 µg/mL (≈ 0.14 µM) | <0.06 µg/mL
CCC1OC(=O)C(C)C(=O)C(C)C(OC2OC(C)CC(N(C)C)C2O)C(C)(OC)CC(C)C(=O)C(C)C2N(C3CN(C(C)c4ccnc5cccnc45)C3)C(=O)OC12C (stereo not drawn) [Example 1.37, 3-descladinosyl-11,12-dideoxy-6-O-methyl-3-oxo-12,11-(oxycarbonyl-(1-(1R-(1,5-naphthyridin-4-yl)-ethyl)-azetidin-3-yl)-imino)erythromycin A] | <0.06 µg/mL | 1 µg/mL (≈ 1.21 µM) | 4 µg/mL (≈ 4.85 µM) | 0.25 µg/mL (≈ 0.303 µM) | <0.06 µg/mL
CCC1OC(=O)C(C)C(=O)C(C)C(OC2OC(C)CC(N(C)C)C2O)C(C)(OC)CC(C)C(=O)C(C)C2N(C3CN(C(C)c4ccnc5cccnc45)C3)C(=O)OC12C (stereo not drawn) [Example 1.38, 3-descladinosyl-11,12-dideoxy-6-O-methyl-3-oxo-12,11-(oxycarbonyl-(1-(1S-(1,5-naphthyridin-4-yl)-ethyl)-azetidin-3-yl)-imino)erythromycin A] | <0.06 µg/mL | 1 µg/mL (≈ 1.21 µM) | 4 µg/mL (≈ 4.85 µM) | 0.25 µg/mL (≈ 0.303 µM) | <0.06 µg/mL
CCC1OC(=O)C(C)C(=O)C(C)C(OC2OC(C)CC(N(C)C)C2O)C(C)(OC)CC(C)C(=O)C(C)C2N(C3CN(Cc4cc(OC)nc5ccccc45)C3)C(=O)OC12C (centres unmarked) [Example 1.39, (2-methoxyquinolin-4-yl)methyl] | <0.06 µg/mL | 1 µg/mL (≈ 1.19 µM) | 16 µg/mL (≈ 19.1 µM) | 0.25 µg/mL (≈ 0.298 µM) | <0.06 µg/mL
CCC1OC(=O)C(C)C(=O)C(C)C(OC2OC(C)CC(N(C)C)C2O)C(C)(OC)CC(C)C(=O)C(C)C2N(C3CN(Cc4cnn(-c5cccc(F)c5)c4)C3)C(=O)OC12C (centres unmarked) [Example 1.41, (1-[3-fluorophenyl]-pyrazol-4-yl)methyl] | <0.06 µg/mL | 0.12 µg/mL (≈ 0.143 µM) | >64.00 µg/mL | <0.06 µg/mL | <0.06 µg/mL
